# Key:
# Format in all cases: in vivo
# House Fly = assay: Example 7: house fly knockdown and mortality, bifenthrin and imidacloprid
# Source text: (§1) The following examples further illustrate the present invention, but, of course, should not be construed as in any way limiting its scope. The examples set forth certain biological data illustrating the efficacy of the compositions of the present invention in controlling general household pests. Each example embodies a separate test wherein the pests were randomly selected from a population at a random age. As a result, from example to example, the ages of the pests can be very different. This age difference potentially translates to different baselines for each example. Therefore, data should only be compared within the example and not from example to example due to the differences in age of the pests from example to example. Unless otherwise indicated, all parts, percentages, and the like are by weight. The spray chamber used in the examples was approximately 76 inches tall, 73 inches long and 31 inches deep with an adjustable shelf (approximately 22 inches deep) and a movable spray nozzle. The spray chambers were calibrated to deliver a volume of approximately 1 gallon of liquid per 1000 square feet of area at about 14 pounds per square inch of pressure. A DeVilbiss hand held sprayer (Atomizer model 152) manufactured by DeVilbiss located in Glendale Heights, Ill. was used in testing house flies and mosquitoes. The DeVilbiss was used to apply approximately 3-5 milliliters of product at about 10 pounds per square inch.
# The compositions of the present invention were tested for house fly activity in the following manner:
# (§2) Test compositions made up of TALSTARONE® MULTI-INSECTICIDE and a wettable powder of imidacloprid (MERIT) in distilled water were prepared that provided appropriate rates of application of combinations of bifenthrin and imidacloprid, as well as bifenthrin and imidacloprid alone.
# A DeVilbiss hand held sprayer was used to deliver the treatment solution at the desired volume and pressure. The house flies to be treated were collected and placed in screened 16 oz paper cups. The hand held sprayer was activated and the test compound was applied to each paper cup interior. House fly knockdown and mortality were measured.
# German cockroach [1] = assay: Example 13: German cockroach mortality, bifenthrin and clothianidin
# Source text: as §1
# (§3) The compositions of the present invention were tested for German cockroach activity in the following manner:
# Test compositions made up of TALSTARONE® MULTI-INSECTICIDE and a 16% a.i. water dispersible granular of clothianidin in distilled water were prepared that provided appropriate rates of application of combinations of bifenthrin and clothianidin, as well as bifenthrin and clothianidin alone.
# (§4) The spray chamber was then calibrated to deliver the treatment solution at the desired volume and pressure over the desired area on the chamber shelf. Spray chamber shelf height was adjusted to approximately 18 inches from the spray tip. The shelf was then covered with aluminum foil and the center of the shelf from front-to-back and end-to-end was determined. A desired number of 4.0″ sieve circles were marked on the aluminum foil with a permanent marker. The inside of a desired number of PVC rings were coated with a petroleum jelly/mineral oil mixture (1:2 ratio). The PVC rings were place on the sieve circles. 10 male German cockroaches were placed inside each PVC ring. The sprayer was activated and the test compound was applied to each PVC ring interior. German cockroach mortality was measured.
# German cockroach [2] = assay: Example 1: German cockroach mortality, spray of bifenthrin and imidacloprid combinations
# Source text: as §1, §3, §2, §4
# [3] = rate of appln. 10 PPM (0.001% by weight)
# [4] = rate of appln. 50 PPM (0.005% by weight)
compound,measurement,setting,value
"Cc1c(COC(=O)[C@@H]2[C@H](/C=C(\Cl)C(F)(F)F)C2(C)C)cccc1-c1ccccc1 (racemic) [A, 2-methylbiphenyl-3-ylmethyl (Z)-(1RS)-cis-3-(2-chloro-3,3,3-trifluoroprop-1-enyl)-2,2-dimethylcyclopropanecarboxylate]",Knockdown Rate @ 15 minute,"House Fly; 10 PPM, 0.001% by weight",0%
same,Knockdown Rate @ 30 minute,"House Fly; 10 PPM, 0.001% by weight",0%
same,Knockdown Rate @ 45 minutes,"House Fly; 10 PPM, 0.001% by weight",17%
same,Knockdown Rate @ 60 minutes,"House Fly; 10 PPM, 0.001% by weight",40%
same,Knockdown Rate @ 120 minutes,"House Fly; 10 PPM, 0.001% by weight",63%
same,Knockdown Rate @ 4 hours,"House Fly; 10 PPM, 0.001% by weight",50%
same,Mortality Rate @ 1 day,"House Fly; 10 PPM, 0.001% by weight",30%
same,Knockdown Rate @ 15 minute,"House Fly; 50 PPM, 0.005% by weight",0%
same,Knockdown Rate @ 30 minute,"House Fly; 50 PPM, 0.005% by weight",78%
same,Knockdown Rate @ 45 minutes,"House Fly; 50 PPM, 0.005% by weight",97%
same,Knockdown Rate @ 60 minutes,"House Fly; 50 PPM, 0.005% by weight",97%
same,Knockdown Rate @ 120 minutes,"House Fly; 50 PPM, 0.005% by weight",97%
same,Knockdown Rate @ 4 hours,"House Fly; 50 PPM, 0.005% by weight",97%
same,Mortality Rate @ 1 day,"House Fly; 50 PPM, 0.005% by weight",97%
same,Mortality Rate @ 60 minutes,German cockroach [1]; [3],8%
same,Mortality Rate @ 120 minutes,German cockroach [1]; [3],33%
same,Mortality Rate @ 1 day,German cockroach [1]; [3],35%
same,Mortality Rate @ 2 days,German cockroach [1]; [3],60%
same,Mortality Rate @ 4 days,German cockroach [1]; [3],100%
same,Mortality Rate @ 60 minutes,German cockroach [1]; [4],15%
same,Mortality Rate @ 120 minutes,German cockroach [1]; [4],48%
same,Mortality Rate @ 1 day,German cockroach [1]; [4],58%
same,Mortality Rate @ 2 days,German cockroach [1]; [4],100%
same,Mortality Rate @ 4 days,German cockroach [1]; [4],100%
same,Mortality Rate @ 60 minutes,"German cockroach [2]; 10 PPM, 0.001% by weight",3%
same,Mortality Rate @ 120 minutes,"German cockroach [2]; 10 PPM, 0.001% by weight",33%
same,Mortality Rate @ 1 day,"German cockroach [2]; 10 PPM, 0.001% by weight",33%
same,Mortality Rate @ 2 days,"German cockroach [2]; 10 PPM, 0.001% by weight",60%
same,Mortality Rate @ 60 minutes,"German cockroach [2]; 50 PPM, 0.005% by weight",30%
same,Mortality Rate @ 120 minutes,"German cockroach [2]; 50 PPM, 0.005% by weight",48%
same,Mortality Rate @ 1 day,"German cockroach [2]; 50 PPM, 0.005% by weight",58%
same,Mortality Rate @ 2 days,"German cockroach [2]; 50 PPM, 0.005% by weight",100%

# Reference: US8092816B2, “Insecticidal compositions for control of general household pests” (priority 2004, dated 2012)
